The assay has as its target Recombinant human 17β-HSD13 (Homo sapiens (Human), UniProt Q7Z5P4). Description: 17β-HSD13 rapid-fire mass spectrometry assay (RF/MS assay). It counts as biochemical. The settings on record: HSD17B13 80 nM, LTB4 10 μM, NAD+ 0.5 mM, RT 3 h, RF/MS readout. As for the experimental part: 17β-HSD13 rapid-fire mass spectrometry assay (RF/MS assay). Recombinant human 17β-HSD13 was expressed and purified from sf9 cells at Charles River Labs (Saffron Walden, UK). […] The assays were quenched by adding 20 μL of 0.15% aqueous formic acid and the plates were frozen at −80° C. RF/MS analysis was performed at PureHoney Technologies (Billerica, MA) on a RapidFire RF300 system (Agilent Technologies, Inc.) coupled to an API 4000 triple quadrupole mass spectrometer (Sciex) equipped with Agilent RapidFire cartridge type A (C4). The mobile phase was 0.09% formic acid and 0.01% trifluoracetic acid in water (Buffer A) and 0.09% formic acid and 0.01% trifluoracetic acid in 80% aqueous acetonitrile (Buffer B). The RapidFire method conditions were the following: 250 ms aspirate, 3000 ms load/desalt, 4000 ms elute, and 500 ms re-equilibrate. RF-MS/MS was performed in negative polarity (−4500 V), the source temperature was 650° C., and gas 1 and gas 2 settings for nitrogen were set to 50. The curtain gas and collision gas were also nitrogen and were set to 20 and 12, respectively.
Data Analysis. 17β-HSD13 enzyme activity was measured as percent conversion of extracted ion counts and normalized to high and low controls to determine percent residual activity at various concentrations of test compounds. Data were fitted to normalized activity (variable slope) versus concentration fit in GraphPad Prism 7 to determine IC50. All experiments were run in duplicates.

Recombinant human 17β-HSD13, sequence (Q7Z5P4 20-300): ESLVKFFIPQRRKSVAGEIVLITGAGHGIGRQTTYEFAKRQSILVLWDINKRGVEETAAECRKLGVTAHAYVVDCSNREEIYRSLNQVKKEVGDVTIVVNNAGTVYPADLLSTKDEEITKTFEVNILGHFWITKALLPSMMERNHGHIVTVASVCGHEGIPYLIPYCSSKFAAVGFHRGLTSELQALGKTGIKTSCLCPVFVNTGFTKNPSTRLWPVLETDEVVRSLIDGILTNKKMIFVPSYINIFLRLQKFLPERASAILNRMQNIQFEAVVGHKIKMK

One may read the IC50 as the concentration that inhibits the measured activity by half. Regarding `COc1ccc(-c2nc3sc4c(OC(C)=O)cccc4c3c(=O)n2Cc2cnco2)c(C2CC2)c1` [Example 1, 2-(2-cyclopropyl-4-methoxyphenyl)-3-(oxazol-5-ylmethyl)-4-oxo-3,4-dihydrobenzo[4,5]thieno[2,3-d]pyrimidin-8-yl acetate], the IC50 is 100 to 1000 nM. In the case of `CCC(=O)Oc1cccc2c1sc1nc(-c3ccc(OC)cc3C3CC3)n(Cc3cnco3)c(=O)c12` [Example 2, 2-(2-cyclopropyl-4-methoxyphenyl)-3-(oxazol-5-ylmethyl)-4-oxo-3,4-dihydrobenzo[4,5]thieno[2,3-d]pyrimidin-8-yl propionate], the IC50 is under 100 nM.

As to `COc1ccc(-c2nc3sc4c(OC(=O)c5ccccc5)cccc4c3c(=O)n2Cc2cnco2)c(C2CC2)c1` [Example 3, 2-(2-cyclopropyl-4-methoxyphenyl)-3-(oxazol-5-ylmethyl)-4-oxo-3,4-dihydrobenzo[4,5]thieno[2,3-d]pyrimidin-8-yl benzoate], the IC50 lay within 100 to 1000 nM.

In the case of `O=c1c2c(nc(-c3ccc4c(c3)OCCO4)n1Cc1ccccc1)sc1c(O)cccc12` [Example 4], the IC50 was in the range of 100 to 1000 nM.

For the molecule `CC(C)(C)c1ccc(-c2nc3sc4c(O)cccc4c3c(=O)n2Cc2ccccc2)cc1` [Example 5], the IC50 was over 10000 nM.

Consider `O=c1c2c(nc(-c3ccc4c(c3)OCO4)n1Cc1ccccc1)sc1c(O)cccc12` [Example 6], for which the IC50 is over 10000 nM.

Take `CC(C)Oc1ccc(-c2nc3sc4c(O)cccc4c3c(=O)n2Cc2ccccc2)cc1` [Example 7]: the IC50 was over 10000 nM. The value for `COc1ccc(-c2nc3sc4c(O)cccc4c3c(=O)n2Cc2ccccc2)c(Br)c1` [Example 8] was 100 to 1000 nM.

In the case of `COc1ccc(-c2nc3sc4c(O)cccc4c3c(=O)n2Cc2ccccc2)c(C2CC2)c1` [Example 9], the IC50 was under 100 nM.

As for `COc1ccc(-c2nc3sc4c(O)cccc4c3c(=O)n2Cc2ccncc2)c(C2CC2)c1` [Example 10], the IC50 is under 100 nM.

In the case of `COc1ccc(-c2nc3sc4c(O)cccc4c3c(=O)n2Cc2ccnc(C)c2)c(C2CC2)c1` [Example 12], the IC50 is under 100 nM. The result for `COc1ccc(-c2nc3sc4c(O)cccc4c3c(=O)n2Cc2ccnc(Cl)c2)c(C2CC2)c1` [Example 13] reads under 100 nM.

On to `COc1ccc(-c2nc3sc4c(O)cccc4c3c(=O)n2Cc2cn[nH]c2)c(C2CC2)c1` [Example 14], for which the IC50 is under 100 nM. The value for `COc1ccc(-c2nc3sc4c(O)cccc4c3c(=O)n2Cc2cncs2)c(C2CC2)c1` [Example 15] was under 100 nM; that for `COc1ccc(-c2nc3sc4c(O)cccc4c3c(=O)n2Cc2nnn(C)n2)c(C2CC2)c1` [Example 16] was under 100 nM; that for `COc1ccc(-c2nc3sc4c(O)cccc4c3c(=O)n2CCN2CCOCC2)c(C2CC2)c1` [Example 17] was under 100 nM. On to `COc1ccc(-c2nc3sc4c(O)cccc4c3c(=O)n2CCN2CCN(C)CC2)c(C2CC2)c1` [Example 18], for which the IC50 was under 100 nM.

In the case of `COc1ccc(-c2nc3sc4c(O)cccc4c3c(=O)n2CCN2CCNCC2)c(C2CC2)c1` [Example 19], the IC50 was under 100 nM. The result for `COc1ccc(-c2nc3sc4c(O)cccc4c3c(=O)n2CCN2CCCCC2)c(C2CC2)c1` [Example 20] reads under 100 nM. For `COc1ccc(-c2nc3sc4c(O)cccc4c3c(=O)n2CCNCc2ccncc2)c(C2CC2)c1` [Example 21], the IC50 is under 100 nM. Regarding `COc1ccc(-c2nc3sc4c(O)cccc4c3c(=O)n2CCNCc2ccccn2)c(C2CC2)c1` [Example 22], the IC50 was under 100 nM. On to `COc1ccc(-c2nc3sc4c(O)cccc4c3c(=O)n2CCNCc2cccnc2)c(C2CC2)c1` [Example 23], for which the IC50 was under 100 nM. The result for `COc1ccc(-c2nc3sc4c(O)cccc4c3c(=O)n2CCN2CCC(O)CC2)c(C2CC2)c1` [Example 24] reads under 100 nM; that for `COc1ccc(-c2nc3sc4c(O)cccc4c3c(=O)n2CCN(C)C)c(C2CC2)c1` [Example 25], under 100 nM. The value for `COc1ccc(-c2nc3sc4c(O)cccc4c3c(=O)n2CCN(C)Cc2ccncc2)c(C2CC2)c1` [Example 26] was under 100 nM; that for `COc1ccc(-c2nc3sc4c(O)cccc4c3c(=O)n2CCN(C)Cc2cccnc2)c(C2CC2)c1` [Example 27] was under 100 nM; that for `COc1ccc(-c2nc3sc4c(O)cccc4c3c(=O)n2CCNCc2cnccn2)c(C2CC2)c1` [Example 28] was under 100 nM. Consider `COc1ccc(-c2nc3sc4c(O)cccc4c3c(=O)n2CCNCc2cnc(OC)nc2)c(C2CC2)c1` [Example 29], for which the IC50 was under 100 nM.

For the molecule `COc1ccc(-c2nc3sc4c(O)cccc4c3c(=O)n2CCNCc2cn[nH]c2)c(C2CC2)c1` [Example 30], the IC50 was under 100 nM. The result for `COc1ccc(-c2nc3sc4c(O)cccc4c3c(=O)n2CCNCc2cncs2)c(C2CC2)c1` [Example 32] reads under 100 nM; that for `COc1ccc(-c2nc3sc4c(OC(=O)[C@H](C)N)cccc4c3c(=O)n2Cc2cncs2)c(C2CC2)c1` [Example 33], under 100 nM; that for `COc1ccc(-c2nc3sc4c(O)cccc4c3c(=O)n2CCNCc2nnn[nH]2)c(C2CC2)c1` [Example 34], under 100 nM. With `COc1ccc(-c2nc3sc4c(O)cccc4c3c(=O)n2CCOC(=O)N2CCOCC2)c(C2CC2)c1` [Example 35], the IC50 is under 100 nM. The value for `COc1ccc(-c2nc3sc4c(O)cccc4c3c(=O)n2C/C=C/COC(=O)N(C)C)c(C2CC2)c1` [Example 36] was under 100 nM; that for `COc1ccc(-c2nc3sc4c(O)cccc4c3c(=O)n2C/C=C/COc2ccncc2)c(C2CC2)c1` [Example 37] was under 100 nM; that for `COc1ccc(-c2nc3sc4c(O)cccc4c3c(=O)n2CCNC(=O)c2ccncc2)c(C2CC2)c1` [Example 38] was 100 to 1000 nM. Consider `COc1ccc(-c2nc3sc4c(O)cccc4c3c(=O)n2CCNCc2nnnn2C)c(C2CC2)c1` [Example 40], for which the IC50 was under 100 nM. The result for `COc1ccc(-c2nc3sc4c(O)cccc4c3c(=O)n2CCNCc2nnn(C)n2)c(C2CC2)c1` [Example 41] reads under 100 nM; that for `COc1ccc(-c2nc3sc4c(O)cccc4c3c(=O)n2C/C=C/C(=O)N(C)C)c(C2CC2)c1` [Example 42], under 100 nM; that for `COc1ccc(-c2nc3sc4c(O)cccc4c3c(=O)n2C/C=C/CO)c(C2CC2)c1` [Example 43], under 100 nM. The result for `COc1ccc(-c2nc3sc4c(O)cccc4c3c(=O)n2CCN)c(C2CC2)c1` [Example 44] reads 100 to 1000 nM; that for `COC(=O)NCCn1c(-c2ccc(OC)cc2C2CC2)nc2sc3c(O)cccc3c2c1=O` [Example 45], 100 to 1000 nM.

Take `O=c1c2c(nc(-c3ccc(F)cc3C3CC3)n1Cc1cncs1)sc1c(O)cccc12` [Example 46]: the IC50 was under 100 nM. The result for `O=c1c2c(nc(-c3ccccc3C3CC3)n1Cc1cncs1)sc1c(O)cccc12` [Example 47] reads under 100 nM. The value for `CC(C)Oc1ccccc1-c1nc2sc3c(O)cccc3c2c(=O)n1Cc1cncs1` [Example 49] was under 100 nM; that for `COc1ccc(-c2nc3sc4c(O)cccc4c3c(=O)n2CCNS(=O)(=O)c2ccc(F)cc2)c(C2CC2)c1` [Example 50] was 100 to 1000 nM; that for `CCOC(=O)C1CC1Cn1c(-c2ccc(OC)cc2C2CC2)nc2sc3c(O)cccc3c2c1=O` (stereo not shown) [Example 51] was under 100 nM. The value for `COc1ccc(-c2nc3sc4c(O)cccc4c3c(=O)n2C/C=C/CSc2ccccc2)c(C2CC2)c1` [Example 52] was 100 to 1000 nM; that for `COc1ccc(-c2nc3sc4c(O)cccc4c3c(=O)n2C)c(C2CC2)c1` [Example 53] was under 100 nM; that for `COc1ccc(-c2nc3sc4c(O)cccc4c3c(=O)n2C2CC2)c(C2CC2)c1` [Example 54] was 100 to 1000 nM.

With `COc1ccc(-c2nc3sc4c(O)cccc4c3c(=O)n2C/C=C/CN(C)C)c(C2CC2)c1` [Example 55], the IC50 is over 10000 nM. As for `CCn1c(-c2ccc(OC)cc2C2CC2)nc2sc3c(O)cccc3c2c1=O` [Example 56], the IC50 is under 100 nM. The result for `CCCn1c(-c2ccc(OC)cc2C2CC2)nc2sc3c(O)cccc3c2c1=O` [Example 57] reads 100 to 1000 nM; that for `COc1ccc(-c2nc3sc4c(O)cccc4c3c(=O)n2CC(F)(F)F)c(C2CC2)c1` [Example 58], 100 to 1000 nM. The value for `COc1ccc(-c2nc3sc4c(O)cccc4c3c(=O)n2CC2CC2)c(C2CC2)c1` [Example 59] was 100 to 1000 nM; that for `COc1ccc(-c2nc3sc4c(O)cccc4c3c(=O)n2Cc2cnc(C)s2)c(C2CC2)c1` [Example 60] was under 100 nM. In the case of `CCc1ncc(Cn2c(-c3ccc(OC)cc3C3CC3)nc3sc4c(O)cccc4c3c2=O)s1` [Example 61], the IC50 was 100 to 1000 nM. The value for `COc1ccc(-c2nc3sc4c(O)cccc4c3c(=O)n2Cc2csc(C)n2)c(C2CC2)c1` [Example 62] was under 100 nM; that for `COc1ccc(-c2nc3sc4c(O)cccc4c3c(=O)n2Cc2ccno2)c(C2CC2)c1` [Example 63] was under 100 nM. The result for `COc1ccc(-c2nc3sc4c(O)cccc4c3c(=O)n2Cc2cnco2)c(C2CC2)c1` [Example 64] reads under 100 nM.

In the case of `C=CCn1c(-c2ccc(OC)cc2C2CC2)nc2sc3c(O)cccc3c2c1=O` [Example 65], the IC50 was under 100 nM.

Source of the values: patent US20230416268A1, “PYRIMIDINONE-CONTAINING 17-BETA-HYDROXYSTEROID DEHYDROGENASE TYPE 13 INHIBITORS” (ENANTA PHARMACEUTICALS, INC., priority 2022, published 2023).
